Results taken from ChEMBL document CHEMBL1156518, “A mouse model for nonsense mutation bypass therapy shows a dramatic multiday response to geneticin” (Proc Natl Acad Sci U S A, 2007).
Calls of active or inactive are those of the source. No cut-off for these calls is given here.

Key:
[1] = system: Mus musculus; experiment: Increase in human F9 nonsense R338X mutant antigen coagulant activity in C57B/6J mouse plasma at 42 mg/kg, sc administered daily for 2 days after 9 hrs; format: functional; settings: route subcutaneous
[2] = system: Mus musculus; experiment: Increase in human F9 nonsense R338X mutant antigen coagulant activity in C57B/6J mouse plasma at 14 mg/kg, sc administered daily for 2 days after 2 hrs; format: functional; settings: route subcutaneous
[3] = Half life in C57BL/6J hemophilia B mouse model at 28 mg/kg, sc for 2 days; format: ADME, organism-based; set-up: dose 28 mg/kg, route subcutaneous; settings: in vivo
[4] = system: Mus musculus; experiment: Increase in human F9 nonsense R338X mutant antigen level per 100 ul of plasma in C57B/6J mouse model at 28 mg/kg, sc administered daily for 2 days after 9 hrs by ELISA; format: functional; settings: route subcutaneous
[5] = system: Mus musculus; experiment: Increase in human F9 nonsense R338X mutant antigen coagulant activity in C57B/6J mouse plasma at 28 mg/kg, sc administered daily for 2 days after 9 hrs; format: functional; settings: route subcutaneous
[6] = system: Mus musculus; experiment: Increase in human F9 nonsense R338X mutant antigen coagulant activity in C57B/6J mouse plasma at 28 mg/kg, sc administered daily for 7 days after 9 hrs by ELISA
[7] = system: Mus musculus; experiment: Increase in human F9 nonsense R338X mutant antigen level per 100 ul of plasma in C57B/6J mouse model at 28 mg/kg, sc administered daily for 2 days after 2 hrs by ELISA; format: functional; settings: route subcutaneous
[8] = system: Mus musculus; experiment: Increase in human F9 nonsense R338X mutant antigen coagulant activity in C57B/6J mouse plasma at 28 mg/kg, sc administered daily for 7 days after 3 hrs by ELISA; settings: route subcutaneous
[9] = Elimination half life in C57BL/6J hemophilia B mouse model liver at 28 mg/kg, sc for 2 days; format: ADME, organism-based; set-up: dose 28 mg/kg, route subcutaneous
[10] = system: Mus musculus; experiment: Increase in human F9 nonsense R338X mutant antigen coagulant activity in C57B/6J mouse plasma at 28 mg/kg, sc administered daily for 7 days after 9 hrs by ELISA; format: functional; settings: route subcutaneous
[11] = system: Mus musculus; experiment: Increase in human F9 nonsense R338X mutant antigen level per 100 ul of plasma in C57B/6J mouse model at 7 mg/kg, sc administered daily for 2 days after 2 hrs by ELISA; format: functional; settings: route subcutaneous
[12] = system: Mus musculus; experiment: Increase in human F9 nonsense R338X mutant antigen coagulant activity in C57B/6J mouse plasma at 28 mg/kg, sc administered daily for 2 days after 2 hrs; format: functional; settings: route subcutaneous
[13] = system: Mus musculus; experiment: Increase in human F9 nonsense R338X mutant antigen level per 100 ul of plasma in C57B/6J mouse model at 14 mg/kg, sc administered daily for 2 days after 2 hrs by ELISA; format: functional; settings: route subcutaneous
[14] = system: Mus musculus; experiment: Increase in human F9 nonsense R338X mutant antigen coagulant activity in C57B/6J mouse plasma at 7 mg/kg, sc administered daily for 2 days after 2 hrs; format: functional; settings: route subcutaneous
[15] = Toxicity in C57BL/6J hemophilia B mouse model at 28 mg/kg, sc; format: organism-based; set-up: dose 28 mg/kg, route subcutaneous; settings: in vivo
[16] = system: Mus musculus; experiment: Increase in human F9 nonsense R338X mutant antigen level per 100 ul of plasma in C57B/6J mouse model at 42 mg/kg, sc administered daily for 2 days after 9 hrs by ELISA; format: functional; settings: route subcutaneous

SMILES: CN[C@@H]1[C@@H](O)[C@@H](O[C@@H]2[C@@H](O)[C@H](O[C@H]3O[C@H]([C@@H](C)O)[C@@H](O)[C@H](O)[C@H]3N)[C@@H](N)C[C@H]2N)OC[C@]1(C)O [GENETICIN]
- Activity [1]: 4.98%
- Activity [2]: 6.18%
- half-life [3]: 0.25 h
- Activity [4]: 27.28 ng
- Activity [5]: 8.03%
- Activity [6]: Active
- Activity [7]: 8.75 ng
- Activity [8]: 22.8 ng
- half-life [9]: 80 h
- Activity [10]: 43.9 ng
- Activity [11]: 2.28 ng
- Activity [12]: 6.94%
- Activity [13]: 5.79 ng
- Activity [14]: 4.55%
- LD50 [15]: 1300 mg/kg
- Activity [16]: 13.57 ng
